The source of these data is article PMC8159961, “Exploring protein hotspots by optimized fragment pharmacophores” (Nature Communications, 2021).

One may read the Ki as a dissociation constant, usually derived from enzyme kinetics or from competition with a known ligand.

In one test the target is T1, human thrombin (Homo sapiens, UniProt P00734).
T1 construct: human thrombin; purchased Sigma-Aldrich
In words: Protease inhibitory assay, chromogenic substrate S-2238. Format: biochemical. As to conditions: for vinit: replicate values; for Ki: Thrombin, one of two values averaged in Supplementary Data 1, read-out: Ki.

In the next test the target is T2, bovine factor Xa (Bos taurus, UniProt P00743).
T2 construct: bovine factor Xa, Chromogenix, 2 nkat/mL; purchased Chromogenix
T2 sequence (P00743 234-492 limits assumed): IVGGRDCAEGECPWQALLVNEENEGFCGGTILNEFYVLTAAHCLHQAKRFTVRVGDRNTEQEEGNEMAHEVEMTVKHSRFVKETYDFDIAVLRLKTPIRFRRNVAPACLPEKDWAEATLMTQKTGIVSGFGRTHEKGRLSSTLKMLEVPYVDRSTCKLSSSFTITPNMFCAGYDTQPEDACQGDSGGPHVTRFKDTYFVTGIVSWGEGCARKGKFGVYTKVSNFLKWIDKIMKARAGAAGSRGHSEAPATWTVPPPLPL
T2 sequence (P00743 41-180 partner limits assumed): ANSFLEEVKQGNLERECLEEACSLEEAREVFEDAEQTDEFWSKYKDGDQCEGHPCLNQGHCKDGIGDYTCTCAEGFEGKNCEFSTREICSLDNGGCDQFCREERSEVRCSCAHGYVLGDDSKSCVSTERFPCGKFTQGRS
Briefly: Protease inhibitory assay, chromogenic substrate S-2222. The test is classed as biochemical. As to conditions: cmpd conc 200 µM; for vinit: replicate values; for Ki: FactorXa, one of two values averaged in Supplementary Data 1, read-out: Ki.

The mark [1] stands for this setting: Thrombin Ki determination, substrate 20 µM, cmpd conc 200 µM.
The mark [2] stands for this setting: Thrombin Ki determination, substrate 40 µM, cmpd conc 200 µM.
The mark [3] stands for this setting: Thrombin primary screening, substrate 40 µM, cmpd conc 500 µM.
Setting [4] is: FactorXa primary screening, substrate 100 µM.
Where [5] appears, read: FactorXa Ki determination, substrate 100 µM.
Setting [6] is: FactorXa Ki determination, substrate 200 µM.

“And” between values parts separate entries of the source, which are not always exact repeats. Identical values can stand only once. Like-named read-outs stand apart in the source and are kept apart here.

Consider `O=C(O)c1cnc(-c2ccccc2)s1` [SX-F3], for which the “V0 / Vi” value was determined as 1.08 at human thrombin (setting [1]), 1.05 at human thrombin (setting [2]), 1.06 on human thrombin (setting [3]) and 1.02 on bovine factor Xa (setting [4]). The “vinit, avrg.” value on human thrombin (setting [1]) is 24.620; at human thrombin (setting [2]) it was 32.167. Further, the vinit at human thrombin (setting [1]) is 23.206 and 25.134 and 25.52; on human thrombin (setting [2]), 32.686 and 32.577 and 31.24; at human thrombin (setting [3]), 26.545 and 28.873; on bovine factor Xa (setting [4]), 17.382 and 16.873. Further, the Ki at human thrombin (substrate 20 µM, cmpd conc 200 µM) is 297 µM; at human thrombin (substrate 40 µM, cmpd conc 200 µM), 245 µM.

`N#CCCN1CCc2ccccc21` [SX-F4]: the “V0 / Vi” value on human thrombin (setting [3]) and on bovine factor Xa (setting [4]) was 1.01 each time. Also, the vinit on human thrombin (setting [3]) was 31.2 and 28.109; on bovine factor Xa (setting [4]), 16.857 and 17.357.

Regarding `O=C(O)c1cccc(Nc2ncccn2)c1` [SX-F5], on human thrombin (setting [3]), the “V0 / Vi” value came out at 1.09; the vinit was 26.836 and 28. For the same compound, on bovine factor Xa (setting [4]), the “V0 / Vi” value was found to be 0.98; the vinit is 17.143 and 18.071.

On to `O=C(Nc1ccccc1)C1CC1` [SX-F6], for which, on human thrombin (setting [3]), the “V0 / Vi” value was found to be 0.98; the vinit was 29.527 and 31.309. Further, at bovine factor Xa (setting [4]), the “V0 / Vi” value is reported as 0.98; the vinit was 18 and 17.071.

In the case of `Oc1nnc(-c2ccccc2)o1` [SX-F7], on human thrombin (setting [3]), the “V0 / Vi” value amounted to 0.99; the vinit is 31.527 and 31.273. In addition, on bovine factor Xa (setting [4]), the “V0 / Vi” value is listed as 1.07; the vinit is 16.182 and 17.345.

Consider `Cc1nccn1Cc1cccc(C#N)c1` [SX-F8], for which, at human thrombin (setting [3]), the “V0 / Vi” value is given as 0.91; the vinit was 34 and 33.891. On bovine factor Xa (setting [4]), the “V0 / Vi” value is 0.98; the vinit is 18.582 and 18.

On to `CC(CN)N1CCc2sccc2C1` (stereo not shown) [SX-F9], for which the “V0 / Vi” value on human thrombin (setting [3]) was 1.01; on bovine factor Xa (setting [4]), 0.97. Besides, the vinit is 34.291 and 27.273 at human thrombin (setting [3]); 18.364 and 18.582 at bovine factor Xa (setting [4]).

On to `NCC1(c2ccccc2)CCOCC1` [SX-F10], for which, at human thrombin (setting [3]), the “V0 / Vi” value is on record as 0.89; the vinit was 36.218 and 34.182. For the same compound, on bovine factor Xa (setting [4]), the “V0 / Vi” value came to 0.94; the vinit was 14.6 and 16.3.

Turning to `Oc1cnc(-c2ccccc2)nc1` [SX-F11], on human thrombin (setting [3]), the “V0 / Vi” value was found to be 1.02; the vinit was 30.836 and 30.8. On bovine factor Xa (setting [4]), the “V0 / Vi” value turned out to be 1.00; the vinit is 14.672 and 14.2.

Regarding `Cc1cc(C)c2c(=O)[nH]n(C)c2n1` [SX-F12], the figures for the “V0 / Vi” value on human thrombin (setting [3]) and on bovine factor Xa (setting [4]) were 0.97 and 1.09, respectively. For the same compound, the vinit is 31.745 and 32.764 at human thrombin (setting [3]); 11.4 and 15 on bovine factor Xa (setting [4]).

As to `COc1ccc(C2=CCNCC2)cc1` [SX-G1], on human thrombin (setting [3]), the “V0 / Vi” value is 1.03; the vinit is 31.055 and 32.691. At bovine factor Xa (setting [4]), the “V0 / Vi” value stood at 0.93; the vinit is 19.4 and 17.2.

In the case of `Cn1c(CO)nc2ccccc21` [SX-G2], at human thrombin (setting [3]), the “V0 / Vi” value was found to be 1.00; the vinit is 32.764 and 33.018. Also, at bovine factor Xa (setting [4]), the “V0 / Vi” value stood at 0.96; the vinit was 18 and 17.3.

Turning to `CN(C)c1cc(CN)ccn1` [SX-G3], the “V0 / Vi” value was 0.92 on human thrombin (setting [3]) and 0.93 at bovine factor Xa (setting [4]). In addition, the vinit at human thrombin (setting [3]) is 35.564 and 35.891; at bovine factor Xa (setting [4]), 17.9 and 18.5.

Regarding `O=C(NC1CC1)c1ccccc1O` [SX-G4], the “V0 / Vi” value on human thrombin (setting [3]) is listed as 1.01; at bovine factor Xa (setting [4]), 0.96. Besides, the vinit on human thrombin (setting [3]) was 31.745 and 33.345; at bovine factor Xa (setting [4]) it was 17.5 and 17.8.

`c1ccc2sc(N3CCNCC3)nc2c1` [SX-G5]: at human thrombin (setting [3]), the “V0 / Vi” value worked out at 1.04; the vinit is 31.164 and 32.073. In addition, on bovine factor Xa (setting [4]), the “V0 / Vi” value amounted to 1.01; the vinit was 16.1 and 17.4.

`O=C(O)C1CCCN(C(=O)N2CCCC2)C1` (stereo not shown) [SX-G6]: the “V0 / Vi” value at human thrombin (setting [3]) was found to be 1.18; at bovine factor Xa (setting [4]), 1.09. Also, the vinit is 27.345 and 28.364 at human thrombin (setting [3]); 16.1 and 15 at bovine factor Xa (setting [4]).

Regarding `O=C1CCN(c2ccncc2)CC1` [SX-G7], the results for the “V0 / Vi” value on human thrombin (setting [3]) and at bovine factor Xa (setting [4]) were 0.90 and 1.03, respectively. For the same compound, the vinit on human thrombin (setting [3]) was 36.109 and 37.055; on bovine factor Xa (setting [4]) it was 17.5 and 15.6.

`O=C1CCN(c2ccccn2)CC1` [SX-G8]: on human thrombin (setting [3]), the “V0 / Vi” value was determined as 0.99 and the vinit is 33.236. For the same compound, at bovine factor Xa (setting [4]), the “V0 / Vi” value is 0.97; the vinit was 18.3 and 16.6.

For the compound `Nc1ccc(-c2ccccc2)cc1C(=O)O` [SX-G9], at human thrombin (setting [3]), the “V0 / Vi” value is on record as 1.08; the vinit is 29.309 and 31.745. Moreover, at bovine factor Xa (setting [4]), the “V0 / Vi” value turned out to be 1.04 and the vinit is given as 16.3.

In the case of `O=C(CN1CCCC1)c1ccccc1Cl` [SX-G10], at human thrombin (setting [3]), the “V0 / Vi” value is listed as 0.99; the vinit is 33.345 and 33.273. Also, at bovine factor Xa (setting [4]), the “V0 / Vi” value was 1.00; the vinit was 17.7 and 16.3.

On to `CCc1nccn1CC(=O)O` [SX-G11], for which the “V0 / Vi” value on human thrombin (setting [3]) worked out at 1.02; on bovine factor Xa (setting [4]), 1.08. Besides, the vinit on human thrombin (setting [3]) is 32.764 and 31.636; at bovine factor Xa (setting [4]), 16.214 and 15.4.

Consider `CS(=O)(=O)Nc1ccc(C(=O)O)cc1` [SX-G12], for which, on human thrombin (setting [3]), the “V0 / Vi” value was determined as 1.06; the vinit is 31.418 and 30.764. Also, at bovine factor Xa (setting [4]), the “V0 / Vi” value stood at 1.01; the vinit was 17.2 and 16.5.

With `O=C(O)c1ccc(CN2CCOCC2)cc1` [SX-H1], at human thrombin (setting [3]), the “V0 / Vi” value is recorded as 1.07; the vinit is 31.127 and 30.255. Also, on bovine factor Xa (setting [4]), the “V0 / Vi” value is recorded as 0.98; the vinit was 17.6 and 17.

On to `O=C(O)CC1CCC(=O)N1` (stereo not shown) [SX-H2], for which, on human thrombin (setting [3]), the “V0 / Vi” value is recorded as 1.12; the vinit is 30.691 and 28. Moreover, on bovine factor Xa (setting [4]), the “V0 / Vi” value was 1.01; the vinit was 17.5 and 16.3.

For `FC1(F)CNCC(F)(F)O1` [SX-H3], the “V0 / Vi” value is 0.99 at human thrombin (setting [3]) and 0.94 on bovine factor Xa (setting [4]). In addition, the vinit was 34.218 and 32.291 at human thrombin (setting [3]); 18.2 and 17.8 on bovine factor Xa (setting [4]).

On to `Fc1ccc2c(C3CCNCC3)c[nH]c2c1` [SX-H4], for which the “V0 / Vi” value on human thrombin (setting [3]) was 0.95; on bovine factor Xa (setting [4]), 0.92. The vinit at human thrombin (setting [3]) is 34.909 and 34.764; on bovine factor Xa (setting [4]), 18 and 18.9.

In the case of `Oc1ccc(-n2cncn2)cc1` [SX-H5], on human thrombin (setting [3]), the “V0 / Vi” value is recorded as 1.00; the vinit was 33.091 and 32.545. Also, on bovine factor Xa (setting [4]), the “V0 / Vi” value is on record as 1.05; the vinit is 16 and 16.3.

Turning to `Cn1nc(C(F)(F)F)cc1O` [SX-H6], on human thrombin (setting [3]), the “V0 / Vi” value came to 1.11; the vinit is 29.345 and 30.109. In addition, at bovine factor Xa (setting [4]), the “V0 / Vi” value is reported as 1.13; the vinit is 14.3 and 15.9.

As to `O=C1CCC(=O)N(c2ccccc2)N1` [SX-H7], at human thrombin (setting [3]), the “V0 / Vi” value came to 1.06; the vinit is 30 and 29.357. Further, on bovine factor Xa (setting [4]), the “V0 / Vi” value came out at 0.97 and the vinit came out at 16.4.

Consider `O=C1CC(CSc2ccc(Cl)cc2)=NN1` [SX-H8], for which, at human thrombin (setting [3]), the “V0 / Vi” value was 0.97; the vinit is 33.5 and 31.286. For the same compound, on bovine factor Xa (setting [4]), the “V0 / Vi” value is recorded as 0.99; the vinit is 15.686 and 16.6.

`O=C(c1ccccc1)N1CCC(CO)CC1` [SX-H9]: on human thrombin (setting [3]), the “V0 / Vi” value is given as 1.03; the vinit is 31.714 and 29.571. Besides, at bovine factor Xa (setting [4]), the “V0 / Vi” value is 0.93; the vinit is 17.7 and 16.5.

Take `O=C1CSC(Nc2ccc(F)cc2)=N1` [SX-H10]: at human thrombin (setting [3]), the “V0 / Vi” value is on record as 1.13; the vinit was 26.786 and 28.857. Also, at bovine factor Xa (setting [4]), the “V0 / Vi” value turned out to be 1.14; the vinit was 14.6 and 13.3.

As for `Cc1ccc(CCNc2ccccc2)cn1` [SX-H11], on human thrombin (setting [3]), the “V0 / Vi” value is recorded as 1.00; the vinit is 31.714 and 31.42. Also, at bovine factor Xa (setting [4]), the “V0 / Vi” value is listed as 0.99; the vinit is 15.4 and 17.

Consider `O=C1NC(=O)/C(=C\c2cccs2)N1` [SX-H12], for which the “V0 / Vi” value on human thrombin (setting [3]) came to 1.13; at bovine factor Xa (setting [6]) it was 1.24; on bovine factor Xa (setting [4]) it was 1.27. Further, the vinit on human thrombin (setting [3]) was 29.929 and 26.071; on bovine factor Xa (setting [5]) it was 13.174 and 12.668 and 15.15; on bovine factor Xa (setting [6]) it was 25.633 and 28.073 and 28.18; on bovine factor Xa (setting [4]), 12.7 and 12.5. The “vinit, avrg.” value on bovine factor Xa (setting [5]) worked out at 13.665; at bovine factor Xa (setting [6]), 27.296. Also, the Ki on bovine factor Xa (substrate 100 µM) was 552 µM; on bovine factor Xa (substrate 200 µM), 380 µM.
